Results reported in patent publication US20060014740A1 (priority 2003, published 2006).
Structures can show the parent of a compound that is named as a salt. Where two headings read alike, the source gives them in different places.

Key:
[1] = test system: PPC-1 human prostate cancer cells; assay: SRB cytotoxicity assay, PPC-1; type: cell-based; details: 96 h, read-out: IC50 PPC-1
Outline: (§1)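 Plate 1000–5000 cells per well depending on growth rate; add compound (0 to 100 μM) for 96 h; fix with 10% trichloroacetic acid, wash, air-dry, stain with SRB; measure absorbance at 540 nm and express cell number relative to untreated control.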

[2] = test system: LNCaP human prostate cancer cells; assay: SRB cytotoxicity assay, LNCaP; type: cell-based; details: 96 h; for IC50: read-out: IC50 LNCaP
Outline: as §1

[3] = test system: DU-145 human prostate cancer cells; assay: SRB cytotoxicity assay, DU-145; type: cell-based; details: 96 h
Outline: as §1

[4] = test system: human breast cancer cell line (MCF-7); assay: SRB cytotoxicity assay, MCF-7; type: cell-based; details: Homo sapiens, MCF7, read-out: IC50 MCF-7
Outline: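 Cells plated at 1000–5000 per well by growth rate and exposed to compound (0 to 100 μM) for 96 h, three to five replicates. Cell number read by sulforhodamine B: TCA fixation, 0.4% SRB staining, absorbance at 540 nm.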

[5] = test system: RH7777 rat hepatoma cells; assay: SRB cytotoxicity assay, RH7777 control cell line; type: cell-based; details: for IC50: read-out: IC50 RH7777
Outline: as §1

[6] = test system: PC-3 human prostate cancer cells; assay: SRB cytotoxicity assay, PC-3; type: cell-based; details: 96 h, read-out: IC50 PC-3
Outline: as §1

[7] = test system: five human prostate cancer cell lines (DU-145, PC-3, LNCaP, PPC-1, TSU-Pr1); assay: SRB cytotoxicity assay, statements over several cell lines; type: cell-based
Method: (§2) For in vitro cytotoxicity screening, 1000 to 5000 cells were plated into each well of 96-well plates depending on growth rate, and exposed to different concentrations of a test compound for 96 h in three to five replicates. All the compounds were dissolved in dimethyl sulfoxide at 5 to 20 mM, and diluted to desired concentrations in complete culture medium. Cell numbers at the end of the drug treatment were measured by the SRB assay (Gududuru et al., “Synthesis and Biological Evaluation of Novel Cytotoxic Phospholipids for Prostate Cancer,” Bioorg. Med. Chem. Lett. 14:4919-4923 (2004); Rubinstein et at., “Comparison of in vitro Anticancer-Drug-Screening Data Generated with a Tetrazolium Assay Versus a Protein Assay Against a Diverse Panel of Human Tumor Cell Lines,” J. Naatl, Cancer Inst. 82:1113-1118 (1990), each of which is hereby incorporated by reference in its entirety). Briefly, the cells were fixed with 10% of trichloroacetic acid, stained with 0.4% SRB, and the absorbances at 540 nm was measured using a plate reader (DYNEX Technologies, Chantilly, Va.).
The antiproliferative activity of all the synthesized compounds was evaluated against five human prostate cancer cell lines and in RH7777 cells (negative control) using the sulforhodamine B (SRB) assay (see description in Example 5 above). […]

[8] = test system: TSU-Pr1 human prostate cancer cells; assay: SRB cytotoxicity assay, TSU-Pr1; type: cell-based; details: 96 h
Outline: as §1

[9] = test system: OVCAR-3 human ovarian cancer cell line; assay: SRB cytotoxicity assay, OVCAR-3; type: cell-based; details: Homo sapiens, OVCAR-3; Table 8
Method: as §2
(§3) In vitro cytotoxicity assay was performed by the same sulforhodamine B (SRB) assay (described above). The compounds shown in Table 8 below where tested for activity against the breast cancer and ovarian cancer cell lines.

[10] = test system: CaOv-3 human ovarian cancer cell line; assay: SRB cytotoxicity assay, CaOv-3; type: cell-based; details: Homo sapiens, Caov-3; Table 8
Method: as §2, §3

[11] = test system: SKOv-3 human ovarian cancer cell line; assay: SRB cytotoxicity assay, SKOv-3; type: cell-based; details: Homo sapiens, SK-OV-3; Table 8
Method: as §2, §3

[12] = test system: CHO cells (CHO-1, CHO-K1); assay: SRB cytotoxicity assay, CHO; type: cell-based; details: Table 9; negative control cell line; 96 h
Method: as §2, §3
(§4) Cells were exposed to a wide range of concentrations (0 to 100 μM) of the particular compound for 96 h in 96 well plates. Cells were fixed with 10% trichloroacetic acid, washed five times with water. The plates were air dried overnight and fixed cells were stained with SRB solution. The cellular protein-bound SRB was measured at 540 nm using a plate reader. Cell numbers at the end of the treatment were measured.
as §4, with “96-well” for “96 well”, “calculated as a percentage of untreated control.” for “measured.”

[13] = Homo sapiens, DU-145, read-out: IC50 DU-145, Table 4
[14] = Table 8, breast cancer cell line
[15] = Rattus norvegicus, RH7777, Table 4, control cell line, 96 h
[16] = Homo sapiens, TSU-Pr1, Table 4, read-out: IC50 TSU-Pr1
[17] = Homo sapiens, PPC-1, Example 10 table
[18] = Homo sapiens, LNCaP, Example 10 table
[19] = Homo sapiens, DU-145, read-out: IC50 DU-145, Example 10 table
[20] = Rattus norvegicus, RH7777, Example 10 table, 0 to 100 μM for 96 h
[21] = Homo sapiens, TSU-Pr1, Example 10 table, read-out: IC50 TSU-Pr1
[22] = Table 9, negative control cell line, 96 h

Compound	IC50 [4, 14] [µM]	IC50 [9] [µM]	IC50 [10] [µM]	IC50 [11] [µM]	IC50 ([1]; Table 9) [µM]	IC50 ([2]; Table 9) [µM]	IC50 ([3]; read-out: IC50 DU-145, Table 9) [µM]	IC50 [12] [µM]	IC50 [5, 22] [µM]	IC50 ([6]; Table 9) [µM]	IC50 ([8]; Table 9, read-out: IC50 TSU) [µM]	other results
CCCCCCCCCCCCCCCCCCNC(=O)c1csc(-c2ccccc2)n1 [Compound 34, 2-phenylthiazole-4-carboxylic acid octadecylamide]	> 20	–	–	–	–	–	–	–	–	–	–	IC50 ([1]; Homo sapiens, PPC-1, Table 4): > 20 µM; IC50 ([2]; Homo sapiens, LNCaP, Table 4): > 20 µM; IC50 [3, 13]: > 20 µM; IC50 [5, 15]: > 20 µM; IC50 ([6]; Homo sapiens, Table 4): > 20 µM; IC50 ([7]; both prostate and RH7777 cells, read-out: No activity below (concentration)): > 20 µM; IC50 [8, 16]: > 20 µM
CCCCCCCNC(=O)[C@@H]1CSC(c2ccccc2)N1 (mixture of isomers) [Compound 3-HCI, (2RS, 4R)-2-Phenylthiazolidine-4-carboxylic acid heptylamide Hydrochloride]	50.3	34	19.2	47.8	–	–	–	–	–	–	–	IC50 [1, 17]: 34.7 µM; IC50 [2, 18]: 12.4 µM; IC50 [3, 19]: 44.9 µM; IC50 ([4]; Example 10 table, 96 h): 50.3 µM; IC50 [5, 20]: 52.2 µM; IC50 ([6]; Homo sapiens, Example 10 table): 38.5 µM; IC50 [8, 21]: 28 µM
CCCCCCCCCCCCCCCCCCNC[C@@H](N)CO [compound 317]	–	–	–	–	1.9	5.1	4.1	2.2	2.9	2.6	2.2	–
CCCCCCCCC=CCCCCCCCCNC(=O)C(N)CO (stereo not shown) [compound 309]	–	–	–	–	5.1	6.6	6.9	5.2	6.8	5.9	5.5	–
CCCCCCCCCCCCCCCCCCNC(=O)[C@@H]1CSC(c2ccc(F)cc2)N1 (mixture of isomers) [Compound 19, (2RS, 4R)-2-(4-Fluoro-phenyl)-thiazolidine-4-carboxylic acid octadecylamide]	8.8	2.3	5.5	4.2	–	–	–	–	–	–	–	melting point: 65 °C; IC50 ([1]; Homo sapiens, PPC-1, Table 4): 2.1 µM; IC50 ([2]; Homo sapiens, LNCaP, Table 4): 1.9 µM; IC50 [3, 13]: 5.7 µM; IC50 [5, 15]: 17.4 µM; IC50 [8, 16]: 5.4 µM
CCCCCCCCC=CCCCCCCCC(=O)NCCOP(=O)(O)O [compound 320]	–	–	–	–	–	–	> 50	> 50	> 50	> 50	> 50	IC50 LNCaP ([2]; Table 9): Not Active
Cl.O=C(O)[C@@H]1CSC(c2ccoc2)N1 (mixture of isomers) [Compound 12-HCI, (2RS, 4R)-2-Furan-3-yl-thiazolidine-4-carboxylic acid Hydrochloride]	–	2.3	7.7	5.4	–	–	–	–	–	–	–	IC50 ([1]; Homo sapiens, PPC-1, Table 3): 1.1 µM; IC50 ([2]; Homo sapiens, LNCaP, Table 3): 1.7 µM; IC50 ([3]; Homo sapiens, DU-145, read-out: IC50 DU-145, Table 3): 6.6 µM; Fold less selective against RH7777 cell line than compound 5 [5]: 3 fold; IC50 ([5]; Rattus norvegicus, RH7777, Table 3, control cell line, 96 h): 10.4 µM; IC50 ([6]; Homo sapiens, Table 3): 8.1 µM; IC50 ([8]; Homo sapiens, TSU-Pr1, Table 3, read-out: IC50 TSU-Pr1): 4.2 µM
CCCCCCCCNC(=O)C(CO)NC(=O)CCCCCCC (stereo not shown) [315d]	–	–	–	–	81.2	> 100	> 100	> 100	–	81.5	93.8	–
CCCCCCCCC=CCCCCCCCC(=O)NCCO [compound 319]	–	–	–	–	> 20	–	–	> 20	> 20	–	–	IC50 LNCaP ([2]; Table 9): Not Active; Activity against DU-145, PC-3, and LNCaP prostate cancer cell lines [7]: did not show any activity; IC50 TSU ([8]; Table 9): Not
CCCCCCCCCCCCCCCCCCNC(=O)[C@H]1CSC(c2ccccc2)N1 (stereo partly drawn) [5-HCI (S), (4S)-N-octadecyl-2-phenylthiazolidine-4-carboxamide]	7.4	5.2	18	18	–	–	–	–	–	–	–	IC50 [1, 17]: 4 µM; IC50 [2, 18]: 6.3 µM; IC50 [3, 19]: 7.1 µM; IC50 ([4]; Example 10 table, 96 h): 7.4 µM; IC50 [5, 20]: 19.1 µM; IC50 ([6]; Homo sapiens, Example 10 table): > 10 µM; IC50 [8, 21]: ~10 µM
